Patent US20240287172A1, “PROTEIN BINDERS TO IRHOM2 EPITOPES” (SCIRHOM GMBH, priority 2019, published 2024)

Tested on: PMA-induced release of endogenous HB-EGF from human U-937 cells
Assay: ELISA-based HB-EGF release assay, PMA-induced, U-937 cells
Type: cell-based
Conditions: PMA 25 ng/ml, 6 hours, murine (m) and chimeric (ch) antibodies and IgG at 3 μg/ml, Batimastat at 10 μM
Method: In brief, on day 1, Nunc black MaxiSorp® 96-well plates (Thermo Fisher Scientific, USA) were coated for 7 hours with 100 μl per well of rat anti-human HB-EGF capture antibody (provided as part of the DuoSet ELISA kit) at 2 μg/ml TBS at room temperature. Capture antibody solution was removed and MaxiSorp® plates were blocked with 300 μl per well of TBS, 1% BSA at room temperature for 3 hours. […]
Following another round of 4 times washing with 350 μl TBS-T (Carl Roth, Germany) per well on a 96-head plate washer (Tecan Group, Switzerland) and careful removal of all buffer traces after the fourth cycle, 100 μl AttoPhos substrate solution (Promega, USA) per well was added for incubation in the dark at room temperature for 1 hour. Using an infinite M1000 (Tecan Group, Switzerland) microplate reader, the fluorescence of each well was collected at an excitation wavelength of 435 nm and an emission wavelength of 555 nm. […]

## CNC(=O)[C@H](Cc1ccccc1)NC(=O)[C@H](CC(C)C)[C@H](CSc1cccs1)C(=O)NO [Batimastat]
  inhibition at 10 µM: 100%
